From patent US20230167127A1, “COMPOUNDS AND THEIR USE IN THE TREATMENT OF BACTERIAL INFECTION” (Hoffmann-La Roche Inc., priority 2020, published 2023)

What follows are compounds tested on Escherichia coli ATCC 25922 (assay: 50% growth inhibitory concentration (IC50) determination, Iso-Sensitest broth dilution). Conditions: Escherichia coli, ATCC25922, 16 h, strain Escherichia coli ATCC 25922; 10-point broth dilution, optical density at 600 nm over 16 h; read-out: Escherichia coli growth inhibition IC50.
Format: cell-based
Method in brief: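 Growth was tracked as optical density at 600 nm every 20 minutes for 16 h at 35±2° C. Compounds from DMSO stocks were serially diluted twofold over 10 points (e.g. 50–0.097 μM final) in Iso-Sensitest broth. Inhibition computed in log-phase growth to give IC50.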

Compound | IC50 [µM]
N#Cc1cccc2c1CC(CNCCc1nn(-c3ccc4c(c3)NC(=O)CO4)c(=O)o1)C2 (centres unmarked) [Example 42, 2-[[2-[5-oxo-4-(3-oxo-4H-1,4-benzoxazin-6-yl)-1,3,4-oxadiazol-2-yl]ethylamino]methyl]-2,3-dihydro-1H-indene-4-carbonitrile; formic acid] | 0.158
Cc1ncc(F)c2c1CC(CN(C)CCC1CN(c3cnc4c(n3)NC(=O)CO4)C(=O)O1)C2 (centres unmarked) [Example 376, 6-[5-[2-[(4-Fluoro-1-methyl-6,7-dihydro-5H-cyclopenta[c]pyridin-6-yl)methyl-methylamino]ethyl]-2-oxo-1,3-oxazolidin-3-yl]-4H-pyrazino[2,3-b][1,4]oxazin-3-one] | < 0.0977
O=C1COc2ccc(N3CC(CCNCC4Cc5cccc(Cl)c5C4)OC3=O)cc2N1 (centres unmarked) [Example 15, 6-[5-[2-[(4-chloro-2,3-dihydro-1H-inden-2-yl)methylamino]ethyl]-2-oxo-1,3-oxazolidin-3-yl]-4H-1,4-benzoxazin-3-one; formic acid] | 0.188
N#Cc1cccc2c1CC(NCCCC1CN(c3cnc4c(n3)NC(=O)CO4)C(=O)O1)C2 (centres unmarked) [Example 80, 2-[3-[2-oxo-3-(3-oxo-4H-pyrazino[2,3-b][1,4]oxazin-6-yl)-1,3-oxazolidin-5-yl]propylamino]-2,3-dihydro-1H-indene-4-carbonitrile] | < 0.0977
CC(C)(N)COc1cc(C#N)c2c(c1)CC(CNCCC1CN(c3cnc4c(n3)NC(=O)CO4)C(=O)O1)C2 (centres unmarked) [Example 204, 6-(2-amino-2-methylpropoxy)-2-(((2-(2-oxo-3-(3-oxo-3,4-dihydro-2H-pyrazino[2,3-b][1,4]oxazin-6-yl)oxazolidin-5-yl)ethyl)amino)methyl)-2,3-dihydro-1H-indene-4-carbonitrile] | < 0.0977
NC1c2cccc(Cl)c2CC1CNCCc1nn(-c2ccc3c(c2)NC(=O)CO3)c(=O)o1 (racemic) [Example 147, 6-[2-oxo-5-[2-[[rac-1,2-trans-1-amino-4-chloro-2,3-dihydro-1H-inden-2-yl]methylamino]ethyl]-1,3,4-oxadiazol-3-yl]-4H-1,4-benzoxazin-3-one; formic acid] | < 0.0977
Cc1cc(OCC2(N)CC2)c(C)c2c1CC(CNCCC1CN(c3cnc4c(n3)NC(=O)CO4)C(=O)O1)C2 (centres unmarked) [Example 253, 6-[5-[2-[[5-[(1-Aminocyclopropyl)methoxy]-4,7-dimethyl-2,3-dihydro-1H-inden-2-yl]methylamino]ethyl]-2-oxo-1,3-oxazolidin-3-yl]-4H-pyrazino[2,3-b][1,4]oxazin-3-one; formic acid] | < 0.0977
CN(C)CCOc1cc(F)c2c(c1)CC(CNCCC1CN(c3cnc4c(n3)NC(=O)CO4)C(=O)O1)C2 (centres unmarked) [Example 272, 6-[5-[2-[[6-[2-(Dimethylamino)ethoxy]-4-fluoro-2,3-dihydro-H-inden-2-yl]methylamino]ethyl]-2-oxo-1,3-oxazolidin-3-yl]-4H-pyrazino[2,3-b][1,4]oxazin-3-one; formic acid] | < 0.0977
Cc1ncc(F)c2c1CC(CNC[C@@H](O)[C@H]1CN(c3cnc4c(n3)NC(=O)CO4)C(=O)O1)C2 (stereo partly drawn) [Example 360, 6-[(5R)-5-[(1R)-2-[(4-Fluoro-1-methyl-6,7-dihydro-5H-cyclopenta[c]pyridin-6-yl)methylamino]-1-hydroxyethyl]-2-oxo-1,3-oxazolidin-3-yl]-4H-pyrazino[2,3-b][1,4]oxazin-3-one; formic acid] | 0.319
NC(CNCC1CN(c2ccc3c(n2)NC(=O)CO3)C(=O)O1)C1Cc2cccc(Cl)c2C1 (centres unmarked) [Example 158, 6-[5-[[[2-amino-2-(4-chloro-2,3-dihydro-1H-inden-2-yl)ethyl]amino]methyl]-2-oxo-1,3-oxazolidin-3-yl]-4H-pyrido[3,2-b][1,4]oxazin-3-one; formic acid] | 0.164
O=C1COc2ncc(N3CC(CCNCC4Cc5cc(OCCn6cnnn6)cc(F)c5C4)OC3=O)nc2N1 (centres unmarked) [Example 347, 6-[5-[2-[[4-fluoro-6-[2-(tetrazol-1-yl)ethoxy]-2,3-dihydro-1H-inden-2-yl]methylamino]ethyl]-2-oxo-1,3-oxazolidin-3-yl]-4H-pyrazino[2,3-b][1,4]oxazin-3-one; formic acid] | 0.175
Cc1ncc(F)c2c1CC(NCC(O)CC1CN(c3cnc4c(n3)NC(=O)CO4)C(=O)O1)C2 (single isomer, unassigned; isomer a) [Example 313, 6-[2-Oxo-5-[3-[(4-fluoro-1-methyl-6,7-dihydro-5H-cyclopenta[c]pyridin-6-yl)amino]-2-hydroxypropyl]-1,3-oxazolidin-3-yl]-4H-pyrazino[2,3-b][1,4]oxazin-3-one; formic acid, Isomer A] | 1.9
O=C1COc2ncc(N3CC(CCNCC4Cc5c(F)cnc(-c6cnc[nH]6)c5C4)OC3=O)nc2N1 (centres unmarked) [Example 433, 6-[5-[2-[[4-Fluoro-1-(1H-imidazol-5-yl)-6,7-dihydro-5H-cyclopenta[c]pyridin-6-yl]methylamino]ethyl]-2-oxo-1,3-oxazolidin-3-yl]-4H-pyrazino[2,3-b][1,4]oxazin-3-one] | < 0.0977
NC(=O)COc1cc(F)c2c(c1)CC(CNCC[C@H]1CN(c3cnc4c(n3)NC(=O)CO4)C(=O)O1)C2 (single isomer, unassigned; isomer a) [Example 379] | < 0.0977
O=C1COc2ncc(N3CC(CCNCC4Cc5cncc(F)c5C4)OC3=O)nc2N1 (centres unmarked) [Example 287, 6-[5-[2-[(4-fluoro-6,7-dihydro-5H-cyclopenta[c]pyridin-6-yl)methylamino]ethyl]-2-oxo-1,3-oxazolidin-3-yl]-4H-pyrazino[2,3-b][1,4]oxazin-3-one] | < 0.0977
Cc1ncc(F)c2c1CC(CN1CCC3(CC1)CN(c1ccc4c(n1)NC(=O)CO4)C(=O)O3)C2 (centres unmarked) [Example 72, 6-[8-[(4-fluoro-1-methyl-6,7-dihydro-5H-cyclopenta[c]pyridin-6-yl)methyl]-2-oxo-1-oxa-3,8-diazaspiro[4.5]decan-3-yl]-4H-pyrido[3,2-b][1,4]oxazin-3-one] | 0.0697
Cc1ncc(F)c2c1CC(CNCCc1cn(-c3cnc4c(n3)NC(=O)CO4)c(=O)o1)C2 (centres unmarked) [Example 293, 6-[5-[2-[(4-fluoro-1-methyl-6,7-dihydro-5H-cyclopenta[c]pyridin-6-yl)methylamino]ethyl]-2-oxo-1,3-oxazol-3-yl]-4H-pyrazino[2,3-b][1,4]oxazin-3-one] | < 0.0977
N#Cc1cccc2c1CC(CN1CCC3(CN(c4ccc5c(n4)NC(=O)CO5)C(=O)O3)C(CN)C1)C2 (racemic) [Example 249, 2-[[rac-5,6-trans-6-(Aminomethyl)-2-oxo-3-(3-oxo-4H-pyrido[3,2-b][1,4]oxazin-6-yl)-1-oxa-3,8-diazaspiro[4.5]decan-8-yl]methyl]-2,3-dihydro-1H-indene-4-carbonitrile; formic acid] | 0.108
O=C1COc2ccc(N3CC(CCCNC4Cc5ccc(F)cc5C4)OC3=O)nc2N1 (centres unmarked) [Example 12, 6-[5-[3-[(5-fluoro-2,3-dihydro-1H-inden-2-yl)amino]propyl]-2-oxo-1,3-oxazolidin-3-yl]-4H-pyrido[3,2-b][1,4]oxazin-3-one; formic acid] | 0.471
N#Cc1cccc2c1CC(CN[C@H]1C[C@H](C3CN(c4ccc5c(n4)NC(=O)CO5)C(=O)O3)C1)C2 (stereo partly drawn) [Example 97, 2-[[[trans-3-[2-oxo-3-(3-oxo-4H-pyrido[3,2-b][1,4]oxazin-6-yl)-1,3-oxazolidin-5-yl]cyclobutyl]amino]methyl]-2,3-dihydro-1H-indene-4-carbonitrile] | 0.185
Cc1c(OC[C@H](N)CO)nc(C#N)c2c1CC(CNCCC1CN(c3ccc4c(n3)NC(=O)CO4)C(=O)O1)C2 (stereo partly drawn) [Example 235, 3-[(2R)-2-Amino-3-hydroxypropoxy]-4-methyl-6-[[2-[2-oxo-3-(3-oxo-4H-pyrido[3,2-b][1,4]oxazin-6-yl)-1,3-oxazolidin-5-yl]ethylamino]methyl]-6,7-dihydro-5H-cyclopenta[c]pyridine-1-carbonitrile] | 0.196
Cc1nc(OCC2CNC(=O)CO2)c(C)c2c1CC(CNCCC1CN(c3ccc4c(n3)NC(=O)CO4)C(=O)O1)C2 (centres unmarked) [Example 101, 6-[5-[2-[[1,4-dimethyl-3-[(5-oxomorpholin-2-yl)methoxy]-6,7-dihydro-5H-cyclopenta[c]pyridin-6-yl]methylamino]ethyl]-2-oxo-1,3-oxazolidin-3-yl]-4H-pyrido[3,2-b][1,4]oxazin-3-one] | 1.39
CC(C)(CC1CN(c2ccc3c(n2)NC(=O)CO3)C(=O)O1)NCC1Cc2ccnc(Cl)c2C1 (centres unmarked) [Example 30, 6-[5-[2-[(1-chloro-6,7-dihydro-5H-cyclopenta[c]pyridin-6-yl)methylamino]-2-methylpropyl]-2-oxo-1,3-oxazolidin-3-yl]-4H-pyrido[3,2-b][1,4]oxazin-3-one; formic acid] | 3.4
CNC(=O)COc1cc(Cl)c2c(c1)C(N)C(CNCCC1CN(c3ccc4c(n3)NC(=O)CO4)C(=O)O1)C2 (racemic) [Example 400, N-methyl-2-[[rac-2,3-trans-3-amino-7-chloro-2-[[2-[2-oxo-3-(3-oxo-4H-pyrido[3,2-b][1,4]oxazin-6-yl)-1,3-oxazolidin-5-yl]ethylamino]methyl]-2,3-dihydro-1H-inden-5-yl]oxy]acetamide; formic acid] | 0.365

Same assay, conditions: strain Escherichia coli ATCC 25922; 10-point broth dilution, optical density at 600 nm over 16 h; read-out: Escherichia coli growth inhibition IC50

Compound | IC50 [µM]
N#Cc1cccc2c1CC(NC1CCC3(CC1)CN(c1ccc4c(n1)NC(=O)CO4)C(=O)O3)C2 (single isomer, unassigned; isomer a) [Example 39, 2-[[2-oxo-3-(3-oxo-4H-pyrido[3,2-b][1,4]oxazin-6-yl)-1-oxa-3-azaspiro[4.5]decan-8-yl]amino]-2,3-dihydro-1H-indene-4-carbonitrile, Isomer A; formic acid] | 0.737
2-[[2-[2-oxo-3-(3-oxo-4H-pyrazino[2,3-b][1,4]oxazin-6-yl)-1,3-oxazolidin-5-yl]ethylamino]methyl]-6-(1H-triazol-5-ylmethoxy)-2,3-dihydro-1H-indene-4-carbonitrile [Example 426] | 0.156
